{"source": "patent US11903916B2", "about": "“Methods of using probenecid for treatment of coronavirus infections” (University of Georgia Research Foundation, Inc., priority 2020, dated 2024)", "key": {"SARS-CoV-2 [1]": {"system": "SARS-CoV-2", "assay_type": "cell-based", "details": "for reduction in plaque formation compared to DMSO treated infected control: 24 h pre-treatment, Vero E6, MOI 0.01, 4 days"}, "SARS-CoV-2 [2]": {"system": "SARS-CoV-2", "assay_type": "cell-based", "details": "for reduction in plaque formation compared to DMSO treated infected control: post-treatment after 1 hour infection, Vero E6, MOI 0.01, 4 days, FIG. 3"}}, "note": "Where two headings read alike, the source gives them in different places."}
{"smiles": "CCCN(CCC)S(=O)(=O)c1ccc(C(=O)O)cc1", "note": "[Probenecid, 4-[(dipropylamino)sulfony1] benzoic acid]", "values": [{"measurement": "viral titer/plaque formation", "setting": "SARS-CoV-2 [1]; 24 hour pretreatment at the concentrations tested", "result": "significantly reduces viral titer/plaque formation"}, {"measurement": "reduction in plaque formation compared to DMSO treated infected control", "setting": "SARS-CoV-2 [1]; probenecid 0.0001 μM, another experiment, FIG. 2", "result": "~50", "unit": "%"}, {"measurement": "reduction in plaque formation compared to DMSO treated infected control", "setting": "SARS-CoV-2 [1]; probenecid 0.1 μM, FIG. 1", "result": "~72", "unit": "%"}, {"measurement": "viral titer/plaque formation", "setting": "SARS-CoV-2 [2]; post-treatment at the concentrations tested", "result": "significantly reduces viral titer/plaque formation"}, {"measurement": "reduction in plaque formation compared to DMSO treated infected control", "setting": "SARS-CoV-2 [2]; probenecid 0.0001 μM", "result": "~40", "unit": "%"}, {"measurement": "reduction in plaque formation compared to DMSO treated infected control", "setting": "SARS-CoV-2 [2]; probenecid 5 μM", "result": "~90", "unit": "%"}]}
